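All cell lines were grown in 96-well plates and treated with compound for 48 hours. The concentration for full growth arrest is given as TGI.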
Assays:
Assay in all cases: NCI anticancer screen, dose series, 48 h
MDA-MB-435 = test system: MDA-MB-435
MDA-N = test system: MDA-N
EKVX NSCLC = test system: EKVX NSCLC
SK-OV-3 ovarian = test system: SK-OV-3 ovarian
NCI/ADR-RES ovarian = test system: NCI/ADR-RES ovarian
COLO 205 colon = test system: COLO 205 colon
SR leukemia = test system: SR leukemia
T-47D breast = test system: T-47D breast
HCT-116 colon = test system: HCT-116 colon
SF-295 CNS = test system: SF-295 CNS
A549 NSCLC = test system: A549 NSCLC
CCRF-CEM leukemia = test system: CCRF-CEM leukemia
SNB-19 CNS = test system: SNB-19 CNS
TK-10 renal = test system: TK-10 renal
SN12C renal = test system: SN12C renal
NCI-H460 lung = test system: NCI-H460 lung
A498 renal = test system: A498 renal
OVCAR-3 ovarian = test system: OVCAR-3 ovarian
HCC-2998 colon = test system: HCC-2998 colon
SK-MEL-28 melanoma = test system: SK-MEL-28 melanoma
SK-MEL-2 melanoma = test system: SK-MEL-2 melanoma
UO-31 renal = test system: UO-31 renal
DU-145 prostate = test system: DU-145 prostate
HL-60(TB) leukemia = test system: HL-60(TB) leukemia
OVCAR-4 ovarian = test system: OVCAR-4 ovarian
MCF7 breast = test system: MCF7 breast
HOP-92 NSCLC = test system: HOP-92 NSCLC
NCI-H522 lung = test system: NCI-H522 lung
SF-268 CNS = test system: SF-268 CNS
786-0 renal = test system: 786-0 renal
LOX IMVI melanoma = test system: LOX IMVI melanoma
BT-549 breast = test system: BT-549 breast
NCI-H23 lung = test system: NCI-H23 lung
UACC-62 melanoma = test system: UACC-62 melanoma
HT29 colon = test system: HT29 colon
OVCAR-8 ovarian = test system: OVCAR-8 ovarian
OVCAR-5 ovarian = test system: OVCAR-5 ovarian
PC-3 prostate = test system: PC-3 prostate
RXF 393 renal = test system: RXF 393 renal
KM12 colon = test system: KM12 colon
IGROV1 ovarian = test system: IGROV1 ovarian
K-562 leukemia = test system: K-562 leukemia
HOP-62 NSCLC = test system: HOP-62 NSCLC
HS 578T breast = test system: HS 578T breast
U251 CNS = test system: U251 CNS
M14 melanoma = test system: M14 melanoma
NCI-H226 lung = test system: NCI-H226 lung
CAKI-1 renal = test system: CAKI-1 renal
UACC-257 melanoma = test system: UACC-257 melanoma
SW-620 colon = test system: SW-620 colon
SNB-75 CNS = test system: SNB-75 CNS
HCT-15 colon = test system: HCT-15 colon
RPMI-8226 leukemia = test system: RPMI-8226 leukemia
SK-MEL-5 melanoma = test system: SK-MEL-5 melanoma
MDA-MB-231 breast = test system: MDA-MB-231 breast
MALME-3M melanoma = test system: MALME-3M melanoma
ACHN renal = test system: ACHN renal
DLD-1 colon = test system: DLD-1 colon
SF-539 CNS = test system: SF-539 CNS
KM20L2 colon = test system: KM20L2 colon
MOLT-4 leukemia = test system: MOLT-4 leukemia

Measured: TGI

CC(C)C(=O)C(C)(C)CCc1ccccn1
not listed: DLD-1 colon | SF-539 CNS | KM20L2 colon | MOLT-4 leukemia
> 100 µM: all other assays above

COC(=O)/C(=N\NC(C)(C)C)C(C(=O)C(=O)Nc1cc(C)ccc1C)c1nc2ccccc2[nH]c1=O (stereo not given)
not listed: MDA-MB-435 | MDA-N | SK-OV-3 ovarian | NCI/ADR-RES ovarian | T-47D breast | HCT-116 colon | A549 NSCLC | NCI-H460 lung | OVCAR-3 ovarian | HCC-2998 colon | SK-MEL-28 melanoma | SK-MEL-2 melanoma | UO-31 renal | DU-145 prostate | MCF7 breast | NCI-H522 lung | SF-268 CNS | 786-0 renal | BT-549 breast | PC-3 prostate | RXF 393 renal | HS 578T breast | U251 CNS | M14 melanoma | HCT-15 colon | MDA-MB-231 breast | MALME-3M melanoma
> 100 µM: all other assays above

COc1cc(C(=O)Oc2ccc3c(c2)OCO3)cc(OC)c1OC
not listed: EKVX NSCLC | HCT-116 colon | CCRF-CEM leukemia | K-562 leukemia | DLD-1 colon | KM20L2 colon
> 100 µM: all other assays above

CC(=O)OCC1OC(n2c(-c3ccccc3)c(N=Nc3ccccc3)c(C)c(C#N)c2=S)C(OC(C)=O)C(OC(C)=O)C1OC(C)=O (stereo not given)
not listed: EKVX NSCLC | A498 renal | NCI-H522 lung | OVCAR-8 ovarian | NCI-H226 lung | DLD-1 colon | KM20L2 colon
> 100 µM: all other assays above
